The results in this text go back to patent publication US20250066347A1, “SUBSTITUTED THIAZOLIDINEDIONE DERIVATIVE COMPOUND, AND PHARMACEUTICAL COMPOSITION FOR PREVENTING OR TREATING CANCER, COMPRISING SAME” (MEDIFIC, INC., priority 2021, published 2025).

In assay [1] the test system is SREBP. Description: Cell-based assay system using a 6xSRE reporter vector (copGFP intensity) in HOG-GSC-6xSRE-copGFP_HIGH cells. Further details: dose or concentration left out as unconfirmed. Particulars: copGFP intensity normalized to DMSO control = 1, 72 hours. The source says:
First, as shown in (a) of FIG. 1, SRE(5′-ATCACCCCAC-3′) 6 copies which are DNA seCuences to which a transcription factor, SREBP active form bonds were inserted into a minimal CMV promoter 5′ front end of a pGreenfire-Lenti-reporter vector to produce a 6xSRE reporter vector. The 6xSRE reporter vector is a vector system in which a minimal CMV promoter is activated only when SREBP in an activated form bonds to 6xSRE and copGFP is expressed, and after the vector was introduced to HOG-GSC which is a brain tumor stem cell, separation into a GFP high cell and a GFP low cell through FACS sorting was performed. Each of SREBP1a and SREBP1c in an active form was overexpressed in separated GFP-low cells (b of FIG. 1), and it was measured therefrom whether the expression amount of GFP was increased. As a result, it was confirmed that the overexpression of SREBP1a and SREBP1c active forms increased GFP expression by 43.30% and 93.49%, in separated GFP-low cells (c of FIG. 1). The separated GFP-high cells were treated with each of fatostatin and FGH10019 known to inhibit activity of DMSO and SREBP which was a control group to measure a change in the expression amount of GFP, and, as a result, it was confirmed that when treated with known materials, fatostatin and FGH10019, the expression of GFP was inhibited by up to 50% (d of FIG. 1).
HOG-GSC-6xSRE-copGFP_HIGH cells were dispensed into a 96-well plate (Corning) at 5000/well, each well was treated […], and then all wells were photographed every 3 hours for 72 hours in an incubator (ThermoFisher) at […], 5% CO2, using real-time cell imaging equipment (Incucyte) to photograph changes in copGFP intensity.

Assay [2] deals with HOG-GSC cells. In words: Comparison of cell viability in brain tumor stem cell (MTS assay). The assay is classed as cell-based. Particulars: 72 hours, DMSO control = 1, value below 0.5 = viability decreased by 50% or more. On the procedure:
HOG-GSC cells which are brain tumor stem cells were treated with 11 compounds at 10 μM and DMSO as a control group, and the number of surviving cells after 72 hours was evaluated by MTS assay.
HOG-GSC which is a brain tumor stem cell was seeded on a 96-well plate at 5000 cells per well, and was cultured in an incubator (ThermoFisher) at 37° C. and 5% CO2 for 24 hours for stabilization of cells. Thereafter, it was treated with 11 compounds of the present invention at […] each, and treated with the same volume of DMSO as a control group as the volume of each compound. After treatment with the compound of the present invention and the control group, cells were cultured in an incubator at 37° C. and 5% CO2 for 72 hours. Thereafter, since there were many living cells in each well, cell viability was quantified using a cell viability assay kit (LPS solution) of which the color becomes darker with an increase in the number of cells. After treatment with the cell viability assay solution, a reaction was performed in an incubator at 37° C. and 5% CO2 for 3 hours to perform coloration, absorbance at 450 nm was measured using a microplate reader (BioTek), and an absorbance intensity of the control group was set to 1 and the absorbance of cells treated with each compound was normalized and is shown in FIG. 2.
A general note: Tetrazolium assays rely on reduction of a dye to a coloured formazan, in cell work by metabolically active cells.

`CC(C)(C)c1ccc(-n2cccc2/C=C2\SC(=O)NC2=O)cc1` [Compound 3, (Z)-5-((1-(4-(tert-butyl)phenyl)-1H-pyrrol-2-yl)methylene) thiazolidine-2,4-dione]: the activity in assay [1] amounted to 1%. In addition, the “cell viability inhibition effect (normalized MTS value)” value in assay [2] is “significant cell viability inhibition effect”.
In the same order, the values of `CC(C)(C)c1ccc(-c2cncc(/C=C3\SC(=O)NC3=O)c2)cc1` [Compound 28, (Z)-5-((5-(4-(tert-butyl)phenyl)pyridin-3-yl)methylene)thiazolidine-2,4-dione] are 4.8% and “significant cell viability inhibition effect”.
In the same order, the values of `O=C1NC(=O)/C(=C/c2ccnc(-c3ccc(OCc4ccccc4)cc3)c2)S1` [Compound 15, (Z)-5-((2-(4-(benzyloxy)phenyl)pyridin-4-yl)methylene)thiazolidine-2,4-dione] are 8.6% and “significant cell viability inhibition effect”.
In the same order, the values of `O=C1NC(=O)/C(=C/c2ccc(-c3ccc(OC(F)(F)F)cc3)nc2)S1` [Compound 25, (Z)-5-((6-(4-(trifluoromethoxy)phenyl)pyridin-3-yl)methylene) thiazolidine-2,4-dione] are 6.3% and “significant cell viability inhibition effect”.
As to `CC(C)(C)c1ccc(-c2ccnc(/C=C3\SC(=O)NC3=O)c2)cc1` [Compound 31, (Z)-5-((4-(4-(tert-butyl)phenyl)pyridin-2-yl)methylene)thiazolidine-2,4-dione], the activity in assay [1] was found to be 4.5%. For the same compound, the “cell viability inhibition effect (normalized MTS value)” value in assay [2] was “significant cell viability inhibition effect”.
For `O=C1NC(=O)/C(=C/c2ccnc(-c3ccc(OC(F)(F)F)cc3)c2)S1` [Compound 14, (Z)-5-((2-(4-(trifluoromethoxy)phenyl)pyridin-4-yl)methylene) thiazolidine-2,4-dione], in that order: 1.7% and “significant cell viability inhibition effect”.
For `O=C1NC(=O)/C(=C/c2ccnc(-c3ccc(C(F)(F)F)cc3)c2)S1` [Compound 12, (Z)-5-((2-(4-(trifluoromethyl)phenyl)pyridin-4-yl)methylene) thiazolidine-2,4-dione], in that order: 5.9% and “significant cell viability inhibition effect”.
In the same order, the values of `Cc1ccc(-c2cc(/C=C3\SC(=O)NC3=O)ccn2)cc1` [Compound 10, (Z)-5-((2-(p-tolyl)pyridin-4-yl)methylene)thiazolidine-2,4-dione] are 8.8% and “significant cell viability inhibition effect”.
In assay [1], `Cc1cc(C)cc(-c2cc(/C=C3\SC(=O)NC3=O)ccn2)c1` [Compound 19, (Z)-5-((2-(3,5-Dimethylphenyl)pyridin-4-yl)methylene)thiazolidine-2,4-dione] displayed an activity of 1.8%. Besides, in assay [2], the “cell viability inhibition effect (normalized MTS value)” value is “significant cell viability inhibition effect”.
In the same order, the values of `CC(C)(C)c1cccc(-c2cc(/C=C3\SC(=O)NC3=O)ccn2)c1` [Compound 18, (Z)-5-((2-(3-(tert-butyl)phenyl)pyridin-4-yl)methylene)thiazolidine-2,4-dione] are 1.3% and “significant cell viability inhibition effect”.
